Data published in US20110201818A1, “POLO-LIKE KINASE INHIBITORS” (TAKEDA PHARMACEUTICAL COMPANY LIMITED, priority 2007, published 2011).

Molecular target: T1, human PLK1 (Homo sapiens, UniProt P53350)
T1 construct: FLAG (DYKDDDDK) (N); made in house; host or cells: Sf21 insect cells, recombinant baculovirus (pFASTBAC1, Bac-to-Bac)
Assay: PLK1 in vitro enzymatic activity assay (phosphorylation of alpha casein by recombinant PLK1)
Assay type: biochemical
Settings: recombinant FLAG-tagged PLK1, alpha casein substrate, 500 nmol/L ATP, 40 min at room temperature; read-out: pIC50 (PLK1) (converted)
Method in brief: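 Recombinant PLK1 from baculovirus-infected Sf21 cells (50 ng) phosphorylated 3 μg alpha casein for 40 min at room temperature in HEPES pH 7.5, Mg acetate, DTT buffer with 500 nmol/L ATP plus [γ-32P]ATP. TCA-precipitated phosphoprotein was filter-captured, washed, and counted by scintillation.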

T1 sequence (P53350 with tags, fused parts or gaps): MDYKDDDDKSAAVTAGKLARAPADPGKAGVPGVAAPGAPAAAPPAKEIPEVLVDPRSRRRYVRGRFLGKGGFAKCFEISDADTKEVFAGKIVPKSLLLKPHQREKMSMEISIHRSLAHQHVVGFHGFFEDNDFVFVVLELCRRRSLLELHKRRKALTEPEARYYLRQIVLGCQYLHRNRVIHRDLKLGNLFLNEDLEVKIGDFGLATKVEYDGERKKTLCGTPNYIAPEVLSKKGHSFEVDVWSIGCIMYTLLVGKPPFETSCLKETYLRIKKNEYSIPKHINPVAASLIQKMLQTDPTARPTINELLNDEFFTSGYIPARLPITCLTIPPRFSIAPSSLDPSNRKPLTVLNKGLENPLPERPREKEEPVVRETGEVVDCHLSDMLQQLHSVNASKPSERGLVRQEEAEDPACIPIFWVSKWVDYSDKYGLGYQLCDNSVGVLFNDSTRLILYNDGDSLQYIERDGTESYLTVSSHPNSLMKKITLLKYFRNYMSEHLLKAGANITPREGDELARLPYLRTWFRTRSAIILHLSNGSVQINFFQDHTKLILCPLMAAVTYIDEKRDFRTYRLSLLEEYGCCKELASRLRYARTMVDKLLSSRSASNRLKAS

Row | Compound | IC50 [nM]
1 | C=CC1(F)CN(C2CCCC2)c2nc(Nc3ccc(C(=O)NC4CN(C)C4)cc3OC)ncc2N(C)C1=O (stereo not shown) [Compound 100, 4-(9-cyclopentyl-7-fluoro-5-methyl-6-oxo-7-vinyl-6,7,8,9-tetrahydro-5H-pyrimido[4,5-b][1,4]diazepin-2-ylamino)-3-methoxy-N-(1-methylazetidin-3-yl)benzamide] | ≤ 2
2 | C=C[C@@]1(F)CN(C2CCCC2)c2nc(Nc3ccc(C(=O)NC4CCN(CC)CC4)cc3OC)ncc2N(C)C1=O [Compound 105, (R)-4-(9-cyclopentyl-7-fluoro-5-methyl-6-oxo-7-vinyl-6,7,8,9-tetrahydro-5H-pyrimido[4,5-b][1,4]diazepin-2-ylamino)-N-(1-ethylpiperidin-4-yl)-3-methoxybenzamide] | ≤ 2
3 | C=C[C@@]1(F)CN(C2CCCC2)c2nc(Nc3ccc(C(=O)NC4CCN(CCO)CC4)cc3OC)ncc2N(C)C1=O [Compound 106, (R)-4-(9-cyclopentyl-7-fluoro-5-methyl-6-oxo-7-vinyl-6,7,8,9-tetrahydro-5H-pyrimido[4,5-b][1,4]diazepin-2-ylamino)-N-(1-(2-hydroxyethyl)piperidin-4-yl)-3-methoxybenzamide] | > 2
4 | C=C[C@@]1(F)CN(C2CCCC2)c2nc(Nc3ccc(C(=O)N[C@@H]4CCCNC4)cc3OC)ncc2N(C)C1=O [Compound 107, 4-((R)-9-cyclopentyl-7-fluoro-5-methyl-6-oxo-7-vinyl-6,7,8,9-tetrahydro-5H-pyrimido[4,5-b][1,4]diazepin-2-ylamino)-3-methoxy-N—((R)-piperidin-3-yl)benzamide] | > 2
5 | C=C[C@@]1(F)CN(C2CCCC2)c2nc(Nc3ccc(C(=O)NC4CCN(CCOP(=O)(O)O)CC4)cc3OC)ncc2N(C)C1=O [Compound 111, (R)-2-(4-(4-(9-cyclopentyl-7-fluoro-5-methyl-6-oxo-7-vinyl-6,7,8,9-tetrahydro-5H-pyrimido[4,5-b][1,4]diazepin-2-ylamino)-3-methoxybenzamido)piperidin-1-yl)ethyl dihydrogen phosphate] | ≤ 2
6 | C=C[C@@]1(F)CN(C2CCCC2)c2nc(Nc3cc(F)c(C(=O)NC4CCN(C)CC4)cc3OC)ncc2N(C)C1=O [Compound 113, (R)-4-(9-cyclopentyl-7-fluoro-5-methyl-6-oxo-7-vinyl-6,7,8,9-tetrahydro-5H-pyrimido[4,5-b][1,4]diazepin-2-ylamino)-2-fluoro-5-methoxy-N-(1-methylpiperidin-4-yl)benzamide] | ≤ 2
7 | COc1cc(C(=O)NC2CCN(CC(N)=O)CC2)ccc1Nc1ncc2c(n1)N(C1CCCC1)CC(F)(F)C(=O)N2C [Compound 114] | > 2
8 | COc1cc(C(=O)NC2CCN(CC(=O)N(C)C)CC2)ccc1Nc1ncc2c(n1)N(C1CCCC1)CC(F)(F)C(=O)N2C [Compound 115, 4-(9-cyclopentyl-7,7-difluoro-5-methyl-6-oxo-6,7,8,9-tetrahydro-5H-pyrimido[4,5-b][1,4]diazepin-2-ylamino)-N-(1-(2-(dimethylamino)-2-oxoethyl)piperidin-4-yl)-3-methoxybenzamide] | > 2
9 | COc1cc(C(=O)NC2CCN(CCO)CC2)c(F)cc1Nc1ncc2c(n1)N(C1CCCC1)CC(F)(F)C(=O)N2C [Compound 117, 4-(9-Cyclopentyl-7,7-difluoro-5-methyl-6-oxo-6,7,8,9-tetrahydro-5H-pyrimido[4,5-b][1,4]diazepin-2-ylamino)-2-fluoro-N-(1-(2-hydroxyethyl)piperidin-4-yl)-5-methoxybenzamide] | ≤ 2
10 | COc1cc(C(=O)NC2CCN(C(=O)CN(C)C)CC2)c(F)cc1Nc1ncc2c(n1)N(C1CCCC1)CC(F)(F)C(=O)N2C [Compound 118, 4-(9-Cyclopentyl-7,7-difluoro-5-methyl-6-oxo-6,7,8,9-tetrahydro-5H-pyrimido[4,5-b][1,4]diazepin-2-ylamino)-N-(1-(2-(dimethylamino)acetyl)piperidin-4-yl)-2-fluoro-5-methoxybenzamide] | > 2
11 | COc1cc(C(=O)N[C@@H]2CCCNC2)c(F)cc1Nc1ncc2c(n1)N(C1CCCC1)CC(F)(F)C(=O)N2C [Compound 119, (R)-4-(9-cyclopentyl-7,7-difluoro-5-methyl-6-oxo-6,7,8,9-tetrahydro-5H-pyrimido[4,5-b][1,4]diazepin-2-ylamino)-2-fluoro-5-methoxy-N-(piperidin-3-yl)benzamide] | > 2
12 | COc1ccc(F)cc1Nc1ncc2c(n1)N(C1CCCC1)CC(F)(F)C(=O)N2C [Compound 120, 9-Cyclopentyl-7,7-difluoro-2-(5-fluoro-2-methoxyphenylamino)-5-methyl-8,9-dihydro-5H-pyrimido[4,5-b][1,4]diazepin-6(7H)-one] | > 2
13 | COc1c(Nc2ncc3c(n2)N(C2CCCC2)CC(F)(F)C(=O)N3C)ccc(C(=O)O)c1F [Compound 123, 4-(9-Cyclopentyl-7,7-difluoro-5-methyl-6-oxo-6,7,8,9-tetrahydro-5H-pyrimido[4,5-b][1,4]diazepin-2-ylamino)-2-fluoro-3-methoxybenzoic acid] | > 2

Other lines, results leading:

Row | IC50 [nM] | Compound
14 | ≤ 2 | COc1cc(C(=O)NC2CN(C(C)C)C2)ccc1Nc1ncc2c(n1)N(C1CCCCC1)CC(F)(F)C(=O)N2C [Compound 125, 4-(9-cyclohexyl-7,7-difluoro-5-methyl-6-oxo-6,7,8,9-tetrahydro-5H-pyrimido[4,5-b][1,4]diazepin-2-ylamino)-N-(1-isopropylazetidin-3-yl)-3-methoxybenzamide]
15 | > 2 | CCN1CC(NC(=O)c2ccc(Nc3ncc4c(n3)N(C3CCCCC3)CC(F)(F)C(=O)N4C)c(OC)c2)C1 [Compound 126, 4-(9-cyclohexyl-7,7-difluoro-5-methyl-6-oxo-6,7,8,9-tetrahydro-5H-pyrimido[4,5-b][1,4]diazepin-2-ylamino)-N-(1-ethylazetidin-3-yl)-3-methoxybenzamide]
16 | ≤ 2 | CCN1CC(NC(=O)c2ccc(Nc3ncc4c(n3)N(C3CCCC3)CC(F)(F)C(=O)N4C)c(OC)c2)C1 [Compound 128, 4-(9-cyclopentyl-7,7-difluoro-5-methyl-6-oxo-6,7,8,9-tetrahydro-5H-pyrimido[4,5-b][1,4]diazepin-2-ylamino)-N-(1-ethylazetidin-3-yl)-3-methoxybenzamide]
17 | ≤ 2 | COc1cc(C(=O)NC2CN(C(C)C)C2)ccc1Nc1ncc2c(n1)N(C1CCCC1)CC(F)(F)C(=O)N2C [Compound 129, 4-(9-cyclopentyl-7,7-difluoro-5-methyl-6-oxo-6,7,8,9-tetrahydro-5H-pyrimido[4,5-b][1,4]diazepin-2-ylamino)-N-(1-isopropylazetidin-3-yl)-3-methoxybenzamide]
18 | ≤ 2 | COc1cc(C(=O)NC2CNC2)c(F)cc1Nc1ncc2c(n1)N(C1CCCC1)CC(F)(F)C(=O)N2C [Compound 130, N-(azetidin-3-yl)-4-(9-cyclopentyl-7,7-difluoro-5-methyl-6-oxo-6,7,8,9-tetrahydro-5H-pyrimido[4,5-b][1,4]diazepin-2-ylamino)-2-fluoro-5-methoxybenzamide]
19 | ≤ 2 | CCN1CC(NC(=O)c2cc(OC)c(Nc3ncc4c(n3)N(C3CCCC3)CC(F)(F)C(=O)N4C)cc2F)C1 [Compound 131, 4-(9-cyclopentyl-7,7-difluoro-5-methyl-6-oxo-6,7,8,9-tetrahydro-5H-pyrimido[4,5-b][1,4]diazepin-2-ylamino)-N-(1-ethylazetidin-3-yl)-2-fluoro-5-methoxybenzamide]
